From US9694021B2, “Pharmaceutical compositions with phosphonium antimicrobial agents” (Alcon Research, Ltd., priority 2010, dated 2017)

Legend:
Assay type in all cases: cell-based
[1] = system: Aspergillus N.; assay: Preservative efficacy test (PET), Aspergillus N.; conditions: boric acid/mannitol/NaCl, pH 6.0
Source text: (§1) The present invention is particularly useful for the provision of multi-dose pharmaceutical (e.g., ophthalmic) compositions that have sufficient antimicrobial activity to allow the compositions to satisfy the USP preservative efficacy requirements, as well as other preservative efficacy standards for aqueous pharmaceutical compositions.
(§2) The preservative efficacy standards for multi-dose ophthalmic solutions in the U.S. and other countries/regions are set forth in the following table:
(§3) Concentrations for the various ingredients of the compositions of the examples provided below are w/v % unless otherwise specifically stated. The compositions of Examples A-D and their preservation efficacy testing (PET) results are provided below.

[2] = system: Pseudomonas A.; assay: Preservative efficacy test (PET), Pseudomonas A.; conditions: boric acid/mannitol/NaCl, pH 6.0
Source text: as §1, §2, §3

[3] = system: canine epithelial cells; assay: Cytotoxicity, neutral red retention
Source text: FIGS. 1 and 2 illustrate the relative cytotoxicity of compounds, some of which are in accordance with the present invention.
FIGS. 1 and 2 illustrate the cytotoxicity of the compounds shown in the above examples. In particular, these Figures show the neutral red retention of canine epithelial cells for the various compounds with the greater neutral red retention showing the lower the cytotoxicity. […] As such, many of these phosphonium antimicrobial agents can be used as suitable replacements for benzalkonium chloride particularly in circumstances where benzalkonium chloride is unsuitable (e.g., is incompatible with other ingredients in a solution).

[4] = system: Candida A.; assay: Preservative efficacy test (PET), Candida A.; conditions: boric acid/mannitol/NaCl, pH 6.0
Source text: as §1, §2, §3

[5] = system: Bacteria, Fungi; assay: PET overall result (Pass/Fail against USP / Ph. Eur. criteria); conditions: for PET Results (Pass/Fail): boric acid/mannitol/NaCl, pH 6.0
Source text: as §1, §2, §3

[6] = system: E. Coli; assay: Preservative efficacy test (PET), E. Coli; conditions: boric acid/mannitol/NaCl, pH 6.0
Source text: as §1, §2, §3

[7] = system: Staph Aureus; assay: Preservative efficacy test (PET), Staph Aureus; conditions: boric acid/mannitol/NaCl, pH 6.0
Source text: as §1, §2, §3

## OC[P+](CO)(CO)CO.[Cl-] [Tetrakis-Hydroxymethyl-Phosphonium Chloride]
[1]; 0.0025 % w/v
  Aspergillus N. (7 D), PET log order reduction: 3.1
  Aspergillus N. (14 D), PET log order reduction: 2.9
  Aspergillus N. (28 Day), PET log order reduction: 2.4
[1]; 0.005 % w/v
  Aspergillus N. (7 D), PET log order reduction: 3.3
  Aspergillus N. (14 D), PET log order reduction: 3.2
  Aspergillus N. (28 Day), PET log order reduction: 3.2
[1]; 0.01 % w/v
  Aspergillus N. (7 D), PET log order reduction: 3.2
  Aspergillus N. (14 D), PET log order reduction: 5.3
  Aspergillus N. (28 Day), PET log order reduction: 5.3
[2]; 0.0025 % w/v
  Pseudomonas A. (6 Hr), PET log order reduction: 3.3
  Pseudomonas A. (7 Day), PET log order reduction: 5.0/5.0/5.0
  Pseudomonas A. (14 Day), PET log order reduction: 5.0/5.0/5.0
  Pseudomonas A. (24 Hr), PET log order reduction: 5.0
  Pseudomonas A. (28 Day), PET log order reduction: 5.0/5.0/5.0
[2]; 0.005 % w/v
  Pseudomonas A. (6 Hr), PET log order reduction: 5.0/5.0/
  Pseudomonas A. (7 Day), PET log order reduction: 5.0/5.0/5.0
  Pseudomonas A. (14 Day), PET log order reduction: 5.0/5.0/5.0
  Pseudomonas A. (24 Hr), PET log order reduction: 5.0/5.0/
  Pseudomonas A. (28 Day), PET log order reduction: 5.0/5.0/5.0
[2]; 0.01 % w/v
  Pseudomonas A. (6 Hr), PET log order reduction: 5.0/5.0/
  Pseudomonas A. (7 Day), PET log order reduction: 5.0/5.0/5.0
  Pseudomonas A. (14 Day), PET log order reduction: 5.0/5.0/5.0
  Pseudomonas A. (24 Hr), PET log order reduction: 5.0/5.0/
  Pseudomonas A. (28 Day), PET log order reduction: 5.0/5.0/5.0
[3]; FIG. 1, greater neutral red retention = lower cytotoxicity
  cytotoxicity (neutral red retention of canine epithelial cells): extremely low level of cytotoxicity
[3]; FIG. 2, various concentrations and vehicles
  cytotoxicity (neutral red retention of canine epithelial cells): extremely low toxicity regardless of concentration and/or the vehicle
[4]; 0.0025 % w/v
  Candida A. (7 Day), PET log order reduction: 0.0
  Candida A. (14 Day), PET log order reduction: 0.2
  Candida A. (28 Day), PET log order reduction: 1.2
[4]; 0.005 % w/v
  Candida A. (7 Day), PET log order reduction: 0.1
  Candida A. (14 Day), PET log order reduction: 0.7
  Candida A. (28 Day), PET log order reduction: 2.0
[4]; 0.01 % w/v
  Candida A. (7 Day), PET log order reduction: 0.9
  Candida A. (14 Day), PET log order reduction: 2.2
  Candida A. (28 Day), PET log order reduction: 3.9
[5]; 0.0025 % w/v
  PET Results (Pass/Fail): Pass USP
[5]; 0.005 % w/v
  PET Results (Pass/Fail): Pass USP
[5]; 0.01 % w/v
  PET Results (Pass/Fail): Pass EP-B
[5]; summary statements of the text on the PET tables
  preservation / antimicrobial efficacy, in words: highly desirable antimicrobial efficacy
[6]; 0.0025 % w/v
  E. Coli (6 Hr), PET log order reduction: 5.1/5.1/
  E. Coli (7 Day), PET log order reduction: 5.1/5.1/5.1
  E. Coli (14 Day), PET log order reduction: 5.1/5.1/5.1
  E. Coli (24 Hr), PET log order reduction: 5.1/5.1/
  E. Coli (28 Day), PET log order reduction: 5.1/5.1/5.1
[6]; 0.005 % w/v
  E. Coli (6 Hr), PET log order reduction: 5.1/5.1/
  E. Coli (7 Day), PET log order reduction: 5.1/5.1/5.1
  E. Coli (14 Day), PET log order reduction: 5.1/5.1/5.1
  E. Coli (24 Hr), PET log order reduction: 5.1/5.1/
  E. Coli (28 Day), PET log order reduction: 5.1/5.1/5.1
[6]; 0.01 % w/v
  E. Coli (6 Hr), PET log order reduction: 5.1/5.1/
  E. Coli (7 Day), PET log order reduction: 5.1/5.1/5.1
  E. Coli (14 Day), PET log order reduction: 5.1/5.1/5.1
  E. Coli (24 Hr), PET log order reduction: 5.1/5.1/
  E. Coli (28 Day), PET log order reduction: 5.1/5.1/5.1
[7]; 0.0025 % w/v
  Staph Aureus (6 Hr), PET log order reduction: 5.0/5.0/
  Staph Aureus (7 Day), PET log order reduction: 5.0/5.0/5.0
  Staph Aureus (14 Day), PET log order reduction: 5.0/5.0/5.0
  Staph Aureus (24 Hr), PET log order reduction: 5.0/5.0/
  Staph Aureus (28 Day), PET log order reduction: 5.0/5.0/5.0
[7]; 0.005 % w/v
  Staph Aureus (6 Hr), PET log order reduction: 5.0/5.0/
  Staph Aureus (7 Day), PET log order reduction: 5.0/5.0/5.0
  Staph Aureus (14 Day), PET log order reduction: 5.0/5.0/5.0
  Staph Aureus (24 Hr), PET log order reduction: 5.0/5.0/
  Staph Aureus (28 Day), PET log order reduction: 5.0/5.0/5.0
[7]; 0.01 % w/v
  Staph Aureus (6 Hr), PET log order reduction: 5.0/5.0/
  Staph Aureus (7 Day), PET log order reduction: 5.0/5.0/5.0
  Staph Aureus (14 Day), PET log order reduction: 5.0/5.0/5.0
  Staph Aureus (24 Hr), PET log order reduction: 5.0/5.0/
  Staph Aureus (28 Day), PET log order reduction: 5.0/5.0/5.0
